Publication PMC6148290, “Endogenous metabolites of vitamin E limit inflammation by targeting 5-lipoxygenase” (Nature Communications, 2018)

Legend:
[1] = target: T1, human recombinant LTC4 synthase (LTC4S) (Homo sapiens, UniProt Q16873); assay: LTC4 synthase activity; format: biochemical
T1 construct: expressed in transfected cells; host or cells: HEK-293 cells stably expressing LTC4S (microsomal membranes)
T1 sequence (Q16873 1-150): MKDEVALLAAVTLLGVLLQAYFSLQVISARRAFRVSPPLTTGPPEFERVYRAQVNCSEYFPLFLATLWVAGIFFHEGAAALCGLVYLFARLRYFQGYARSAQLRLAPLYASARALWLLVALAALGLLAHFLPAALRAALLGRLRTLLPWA
Method: To investigate the effect of LCMs on LTC4S activity, we used microsomal membranes from HEK-293 cells stably expressing LTC4S[70]. […] The conversion of LTA4 to LTC4 methyl esters was initiated by addition of LTA4 methyl ester (Cayman Chemicals; 1 µM). After 10 min at 4 °C, the reaction was terminated by ice-cold methanol (one volume), and LTC-d5 methyl ester (5 ng; Cayman Chemicals) was added as internal standard. LTC4 was extracted and analyzed by UPLC-MS/MS as described for lipid mediators. Vehicle (DMSO)-treated microsomal membranes produced 7.1 ± 0.5 nmol LTC4.

[2] = LCM quantitation in plasma of healthy volunteers (UPLC-MS/MS); design: species or system human; settings: endogenous; ten healthy volunteers
Method: The diversity of LCMs in vivo is poorly investigated and limited to the analysis of plasma[27] and liver. To quantify vitamin E metabolites in plasma and tissues, we developed a sensitive ultraperformance liquid chromatography ESI tandem mass spectrometry (UPLC-MS/MS)-based quantitation method. […] The detection response of α-T-13′-COOH (4a) was linear between 1 and 250 nM (Fig. 2a), with lower limits of detection between 0.5 and 4 nM for ω-carboxylates and 4 and 250 nM for ω-alcohols (Supplementary Table 3).
Human PMNL, monocytes, PBMC, and platelets were freshly isolated from leukocyte concentrates. The protocols for experiments with human blood and blood cells were approved by the ethical commission of the Friedrich-Schiller-University Jena. […]
LCMs were separated on an Acquity UPLC BEH C18 column (1.7 µm, 2.1 × 50 mm, Waters) at a flow rate of 0.8 ml/min at 45 °C: 0 to 4.5 min, gradient from 50% mobile phase A (acetonitrile/water, 10/90, 0.07% formic acid)/50% mobile phase B (acetonitrile, 0.07% formic acid) to 100% B; 4.5 to 5.5 min, isocratic at 100% B. Multiple reaction monitoring was used to detect LCMs in the negative ion mode. […] Collision energies and lower limits of quantitation are listed in Supplementary Table 3.

OVA-sensitized mice = assay: Airway hyper-reactivity in OVA-sensitized mice; format: in vivo, mouse; settings: 10 mg/kg i.p. at days 0 and 7; day 21
Method: BALB/c mice were sensitized to OVA, and bronchial reactivity and pulmonary LTC4 levels were measured. On days 0 and 7, α-T-13′-COOH (4a; 10 mg/kg, i.p.) or vehicle (4% DMSO in saline; 0.5 ml) were administered 30 min before injection of OVA (100 µg; Sigma Aldrich) which was adsorbed to aluminum hydroxide gel (3.3 mg; Sigma Aldrich). Mice were sacrificed on day 21, and bronchi were collected. Bronchial rings of 1–2 mm length were cut and placed in organ baths mounted to isometric force transducers (Type 7006, AD Instruments, Ugo Basile, Comerio, Italy) and connected to a Powerlab 800 (AD Instruments). Rings were initially stretched until a resting tension of 0.5 g was reached and allowed to equilibrate for at least 30 min. In each experiment, bronchial rings were challenged with carbachol (10^−6 M) until the response was reproducible. Bronchial reactivity was then assessed from a cumulative concentration–response curve to carbachol (1 × 10^−8 − 3 × 10^−5 M). To determine pulmonary LTC4 levels, lungs were isolated and homogenized in PBS pH 7.4 (100 mg tissue/ml) prior to detection of LTC4 by enzyme immunoassay (Cayman Chemicals).

Cc1c(C)c2c(c(C)c1O)CC[C@@](C)(CCCC(C)CCCC(C)CCCC(C)C(=O)O)O2 (stereo partly drawn) [4a, 13-((2R)-6-hydroxy-2,5,7,8-tetramethylchroman-2-yl)-2,6,10-trimethyltridecanoic acid]
IC50 [1]: 9.9 µM | α-T-13′-COOH (4a) concentration in human plasma [2]: 8 to 49 nM | OVA-induced bronchial hyper-reactivity to carbachol (OVA-sensitized mice): significantly inhibited | pulmonary LTC4 levels (OVA-sensitized mice): lowered pulmonary LTC4 to basal levels
